What was measured:
Details in all cases: 72 h
Caco-2 [1] = assay: cell viability relative to DMSO; higher = less toxic
Calu-3 [2] = assay: as above
HepG2 [3] = assay: as above
U2OS [4] = assay: as above
Caco-2 [5] = assay: relative viability EC50 (midpoint between 100% and the lowest measured viability); higher = less toxic
Calu-3 [6] = assay: as above
HepG2 [7] = assay: as above
U2OS [8] = assay: as above
Caco-2 [9] = assay: drug sensitivity score (DSS) for viability; higher = more toxic; extreme values may be limits of the assay
Calu-3 [10] = assay: as above
HepG2 [11] = assay: as above
U2OS [12] = assay: as above
Vero E6 [13] = assay: cell viability relative to DMSO; higher = less toxic
Vero E6 [14] = assay: drug sensitivity score (DSS) for viability; higher = more toxic; extreme values may be limits of the assay
Vero E6 [15] = assay: relative viability EC50 (midpoint between 100% and the lowest measured viability); higher = less toxic

| SMILES | cell viability (Caco-2 [1]; 1 nM) | cell viability (Caco-2 [1]; 10 nM) | cell viability (Caco-2 [1]; 100 nM) | cell viability (Caco-2 [1]; 1000 nM) | cell viability (Caco-2 [1]; 10000 nM) | cell viability (Calu-3 [2]; 1 nM) | cell viability (Calu-3 [2]; 10 nM) | cell viability (Calu-3 [2]; 100 nM) | cell viability (Calu-3 [2]; 1000 nM) | cell viability (Calu-3 [2]; 10000 nM) | cell viability (HepG2 [3]; 1 nM) | cell viability (HepG2 [3]; 10 nM) | cell viability (HepG2 [3]; 100 nM) | cell viability (HepG2 [3]; 1000 nM) | cell viability (HepG2 [3]; 10000 nM) | cell viability (U2OS [4]; 1 nM) | cell viability (U2OS [4]; 10 nM) | cell viability (U2OS [4]; 100 nM) | cell viability (U2OS [4]; 1000 nM) | cell viability (U2OS [4]; 10000 nM) | relative viability EC50 (Caco-2 [5]) | relative viability EC50 (Calu-3 [6]) | relative viability EC50 (HepG2 [7]) | relative viability EC50 (U2OS [8]) | drug sensitivity score (Caco-2 [9]) | drug sensitivity score (Calu-3 [10]) | drug sensitivity score (HepG2 [11]) | drug sensitivity score (U2OS [12]) | cell viability (Vero E6 [13]; 1 nM) | cell viability (Vero E6 [13]; 10 nM) | cell viability (Vero E6 [13]; 100 nM) | cell viability (Vero E6 [13]; 1000 nM) | cell viability (Vero E6 [13]; 10000 nM) | drug sensitivity score (Vero E6 [14]) | relative viability EC50 (Vero E6 [15]) |
| --- | --- | --- | --- | --- | --- | --- | --- | --- | --- | --- | --- | --- | --- | --- | --- | --- | --- | --- | --- | --- | --- | --- | --- | --- | --- | --- | --- | --- | --- | --- | --- | --- | --- | --- | --- |
| CC(N)C12CC3CC(CC(C3)C1)C2 (configuration not stated) [rimantadine] | 101% | 94.6% | 101% | 103% | 103% | 91% | 84.1% | 82.5% | 96.6% | 95.6% | 93.6% | 108% | 100% | 101% | 103% | 95.3% | 98% | 101% | 102% | 104% | > 10 µM | > 10 µM | > 10 µM | > 10 µM | 0 | 0 | 0 | 0 |  |  |  |  |  |  |  |
| NC(=O)c1nc(Nc2ccccc2)sc1NC(=O)C1CCCCC1 [UNC3230] | 98.6% | 97.8% | 98% | 89.2% | 75.1% | 86.3% | 84.9% | 90.8% | 79% | 69.7% | 96.6% | 104% | 88.1% | 104% | 88.5% | 102% | 96.9% | 97.5% | 93.8% | 88.8% | > 10 µM |  | > 10 µM | > 10 µM | 1.9 | 5.6 | 0 | 0 | 99.1% | 92.6% | 98.1% | 99% | 70.8% | 1.4 |  |
| O=c1ncn2nc(Sc3ccc(F)cc3F)ccc2c1-c1c(Cl)cccc1Cl [VX-745] | 107% | 96.5% | 104% | 99.7% | 82.6% | 97.1% | 107% | 98.7% | 82.9% | 95% |  |  |  |  |  | 102% | 108% | 98.4% | 94.9% | 87.9% | > 10 µM | > 10 µM |  | > 10 µM | 0.4 | 2.1 |  | 0.1 | 106% | 105% | 95.8% | 86.1% | 86.1% | 1.4 | > 10 µM |
| Cc1ccc2c(N3CCN(CCc4cccc(N5CCNC5=O)c4)CC3)cccc2n1 | 104% | 98% | 93.9% | 101% | 96% | 93.6% | 94.8% | 108% | 99.2% | 97.6% | 96.1% | 98.6% | 89.2% | 92.8% | 73.5% | 101% | 101% | 101% | 95.5% | 97.7% | > 10 µM | > 10 µM |  | > 10 µM | 0 | 0 | 1.7 | 0 | 99.8% | 100% | 98.3% | 103% | 96.3% | 0 | > 10 µM |
| Oc1ccc([C@@H]2Oc3ccc(O)cc3[C@@H]3CCC[C@@H]32)cc1 [erteberel] | 95.4% | 94.4% | 96.7% | 92.8% | 86.8% | 108% | 109% | 108% | 98.3% | 102% | 102% | 101% | 97.6% | 108% | 52.4% | 97.5% | 95.6% | 102% | 98.9% | 82.9% | > 10 µM | > 10 µM |  | > 10 µM | 0 | 0 | 2 | 0.5 | 94.8% | 99% | 92.5% | 99.4% | 87.8% | 0 | > 10 µM |
| C/C(=C\C(N)C(=O)O)CP(=O)(O)O (configuration not stated) | 102% | 110% | 97.5% | 90% | 101% | 95.9% | 98.3% | 104% | 96.2% | 101% |  |  |  |  |  | 101% | 96.3% | 97% | 97.1% | 104% | > 10 µM | > 10 µM |  | > 10 µM | 0 | 0 |  | 0 |  |  |  |  |  |  |  |
| CCOc1ccc2nc(SCCN3CCOCC3)[nH]c2c1 [afobazole] | 102% | 110% | 104% | 99.5% | 102% | 95.5% | 97.8% | 84.4% | 101% | 99.8% | 112% | 101% | 107% | 99.5% | 103% |  |  |  |  |  | > 10 µM | > 10 µM | > 10 µM |  | 0 | 0 | 0 |  |  |  |  |  |  |  |  |
| COc1ccc(-c2cc(=S)ss2)cc1 [anethole-trithione] | 99.3% | 96.5% | 100% | 91.9% | 92.2% | 97.1% | 95.9% | 111% | 108% | 97.3% |  |  |  |  |  | 100% | 98.9% | 99.8% | 97.6% | 103% | > 10 µM | > 10 µM |  | > 10 µM | 0 | 0 |  | 0 | 107% | 105% | 95.9% | 102% | 106% | 0 | > 10 µM |

Reference: the supplement of paper PMC13380429
